Experimental data as given in article PMC10745491 (Frontiers in Cellular Neuroscience, 2023).
Where two headings read alike, the source gives them in different places. Peptide text beside a SMILES is read from it.

Assays:
[1] = target: sst4 (Homo sapiens, UniProt P31391); type: binding
[2] = target: 5-HT3 (Homo sapiens, UniProt P46098)
[3] = target: mu (Homo sapiens, UniProt P35372)
[4] = system: Na+ channel; assay: radioligand binding assay; parameters: species or system human
[5] = target: GSK3alpha (Homo sapiens, UniProt P49840)
[6] = target: A3 (Homo sapiens, UniProt P0DMS8)
[7] = target: MAO-B enzyme (Homo sapiens, UniProt P27338)
[8] = target: H2 (Homo sapiens, UniProt P25021)
[9] = system: brain OXTR; settings: in vivo
[10] = target: N muscle-type (Homo sapiens, UniProt P02708+P07510+Q07001); type: binding
[11] = target: ACE (Homo sapiens, UniProt P12821)
[12] = target: rat V1aR (Rattus norvegicus, UniProt P30560); assay: cell-based; type: cell-based
[13] = target: rat OXTR (Rattus norvegicus, UniProt P70536)
[14] = target: AT1 (Homo sapiens, UniProt P30556); type: binding
[15] = target: COX2 (Homo sapiens, UniProt P35354)
[16] = target: beta 1 (Homo sapiens, UniProt P08588)
[17] = target: M4 (Homo sapiens, UniProt P08173); type: binding
[18] = target: acetylcholinesterase (Homo sapiens, UniProt P22303); type: biochemical
[19] = rat
[20] = target: D1 (Homo sapiens, UniProt P21728)
[21] = target: 5-HT transporter (Homo sapiens, UniProt P31645)
[22] = target: GSK3beta (Homo sapiens, UniProt P49841)
[23] = target: PPARgamma (Homo sapiens, UniProt P37231)
[24] = target: alpha 1A (Homo sapiens, UniProt P35348); type: binding
[25] = target: PDE5 (Homo sapiens, UniProt O76074); type: biochemical
[26] = system: PCP; assay: radioligand binding assay; parameters: species or system human
[27] = target: M2 (Homo sapiens, UniProt P08172)
[28] = target: 5-HT1A (Homo sapiens, UniProt P08908)
[29] = in vivo, sc
[30] = target: 5-HT2B (Homo sapiens, UniProt P41595); assay: radioligand binding assay
[31] = target: NE transporter (Homo sapiens, UniProt P23975)
[32] = target: HIV-1 protease (Human immunodeficiency virus type 1 group M subtype B, UniProt P04585)
[33] = target: H1 (Homo sapiens, UniProt P35367)
[34] = target: ERalpha (Homo sapiens, UniProt P03372)
[35] = target: human OXTR (Homo sapiens, UniProt P30559); assay: cell-based
[36] = target: MAO-A (Homo sapiens, UniProt P21397); type: biochemical

Sequence of acetylcholinesterase (P22303 32-614): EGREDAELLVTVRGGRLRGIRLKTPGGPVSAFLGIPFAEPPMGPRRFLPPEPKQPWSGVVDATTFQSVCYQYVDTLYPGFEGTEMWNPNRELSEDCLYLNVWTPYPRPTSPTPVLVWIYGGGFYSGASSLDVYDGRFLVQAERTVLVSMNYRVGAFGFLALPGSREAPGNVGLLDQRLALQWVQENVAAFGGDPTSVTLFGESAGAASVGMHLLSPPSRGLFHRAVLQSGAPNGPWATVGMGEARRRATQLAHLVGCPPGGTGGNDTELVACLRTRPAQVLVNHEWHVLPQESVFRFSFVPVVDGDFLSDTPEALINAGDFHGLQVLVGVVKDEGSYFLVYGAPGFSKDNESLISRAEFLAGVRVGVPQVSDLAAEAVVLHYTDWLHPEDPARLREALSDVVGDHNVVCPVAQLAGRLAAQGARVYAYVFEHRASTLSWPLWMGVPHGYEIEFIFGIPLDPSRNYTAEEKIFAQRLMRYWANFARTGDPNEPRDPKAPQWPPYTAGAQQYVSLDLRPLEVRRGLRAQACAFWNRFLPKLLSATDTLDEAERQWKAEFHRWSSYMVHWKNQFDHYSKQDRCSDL
Sequence of NE transporter (P23975 whole entry): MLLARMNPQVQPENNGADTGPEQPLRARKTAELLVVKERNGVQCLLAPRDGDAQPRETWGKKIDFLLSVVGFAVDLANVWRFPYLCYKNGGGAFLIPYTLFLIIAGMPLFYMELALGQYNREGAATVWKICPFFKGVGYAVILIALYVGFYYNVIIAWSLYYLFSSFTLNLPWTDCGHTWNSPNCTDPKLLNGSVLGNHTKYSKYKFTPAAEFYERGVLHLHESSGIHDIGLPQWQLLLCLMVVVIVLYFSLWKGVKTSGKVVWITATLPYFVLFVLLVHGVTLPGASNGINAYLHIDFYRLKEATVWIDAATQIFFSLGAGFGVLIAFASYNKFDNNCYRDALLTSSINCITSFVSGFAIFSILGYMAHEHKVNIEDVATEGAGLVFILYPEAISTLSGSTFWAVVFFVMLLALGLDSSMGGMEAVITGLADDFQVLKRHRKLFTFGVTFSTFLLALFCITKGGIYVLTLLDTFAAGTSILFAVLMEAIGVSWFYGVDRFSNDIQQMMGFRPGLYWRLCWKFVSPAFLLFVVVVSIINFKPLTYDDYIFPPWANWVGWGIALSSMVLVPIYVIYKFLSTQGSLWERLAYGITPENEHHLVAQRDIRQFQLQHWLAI
Sequence of beta 1 (P08588 whole entry): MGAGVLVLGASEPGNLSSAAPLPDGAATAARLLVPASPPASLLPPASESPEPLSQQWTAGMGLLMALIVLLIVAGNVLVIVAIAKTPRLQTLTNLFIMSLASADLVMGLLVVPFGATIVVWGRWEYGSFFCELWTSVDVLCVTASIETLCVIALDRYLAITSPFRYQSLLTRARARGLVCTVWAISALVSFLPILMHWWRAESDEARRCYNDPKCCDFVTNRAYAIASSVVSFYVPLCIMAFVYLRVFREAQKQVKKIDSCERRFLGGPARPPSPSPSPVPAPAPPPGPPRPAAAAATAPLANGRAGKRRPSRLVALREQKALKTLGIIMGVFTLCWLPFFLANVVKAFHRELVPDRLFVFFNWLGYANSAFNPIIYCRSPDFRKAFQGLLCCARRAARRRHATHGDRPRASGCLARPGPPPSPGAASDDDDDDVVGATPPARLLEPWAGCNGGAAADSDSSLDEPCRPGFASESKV
Sequence of H2 (P25021 whole entry): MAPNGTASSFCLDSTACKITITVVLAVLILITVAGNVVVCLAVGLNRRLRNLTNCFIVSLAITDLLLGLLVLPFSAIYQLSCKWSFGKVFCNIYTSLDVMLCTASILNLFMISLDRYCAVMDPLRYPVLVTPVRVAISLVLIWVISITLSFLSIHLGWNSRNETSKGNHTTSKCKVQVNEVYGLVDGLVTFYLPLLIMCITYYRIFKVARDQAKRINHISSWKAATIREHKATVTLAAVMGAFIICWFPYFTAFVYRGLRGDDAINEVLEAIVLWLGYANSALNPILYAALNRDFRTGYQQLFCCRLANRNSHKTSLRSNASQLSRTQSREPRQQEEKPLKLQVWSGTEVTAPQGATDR
Sequence of alpha 1A (P35348 whole entry): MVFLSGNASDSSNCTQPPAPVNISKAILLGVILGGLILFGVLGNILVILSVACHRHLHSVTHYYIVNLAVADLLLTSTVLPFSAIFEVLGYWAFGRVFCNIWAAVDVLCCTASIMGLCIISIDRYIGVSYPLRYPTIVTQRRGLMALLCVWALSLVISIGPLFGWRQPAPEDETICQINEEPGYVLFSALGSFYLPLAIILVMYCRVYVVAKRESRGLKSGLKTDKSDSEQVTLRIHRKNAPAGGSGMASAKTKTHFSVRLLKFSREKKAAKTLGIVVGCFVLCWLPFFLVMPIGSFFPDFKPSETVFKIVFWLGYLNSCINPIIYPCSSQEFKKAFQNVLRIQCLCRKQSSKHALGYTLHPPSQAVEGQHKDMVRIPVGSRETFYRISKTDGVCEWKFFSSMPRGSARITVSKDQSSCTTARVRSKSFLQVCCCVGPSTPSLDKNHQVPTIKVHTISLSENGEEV
Sequence of PPARgamma (P37231 whole entry): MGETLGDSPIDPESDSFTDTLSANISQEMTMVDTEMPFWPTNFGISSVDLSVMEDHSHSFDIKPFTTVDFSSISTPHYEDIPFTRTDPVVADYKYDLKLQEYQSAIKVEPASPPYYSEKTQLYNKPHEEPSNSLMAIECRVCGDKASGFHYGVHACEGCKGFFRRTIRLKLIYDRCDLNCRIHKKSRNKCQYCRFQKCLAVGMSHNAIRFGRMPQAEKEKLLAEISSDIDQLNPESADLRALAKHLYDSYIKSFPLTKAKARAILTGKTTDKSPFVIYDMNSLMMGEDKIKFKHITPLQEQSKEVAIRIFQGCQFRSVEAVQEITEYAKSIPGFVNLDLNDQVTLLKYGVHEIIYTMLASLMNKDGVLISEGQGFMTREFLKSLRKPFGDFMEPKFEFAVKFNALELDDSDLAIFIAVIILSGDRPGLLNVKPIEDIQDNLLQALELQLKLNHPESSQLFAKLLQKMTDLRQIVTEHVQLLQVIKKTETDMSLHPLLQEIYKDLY
Sequence of H1 (P35367 whole entry): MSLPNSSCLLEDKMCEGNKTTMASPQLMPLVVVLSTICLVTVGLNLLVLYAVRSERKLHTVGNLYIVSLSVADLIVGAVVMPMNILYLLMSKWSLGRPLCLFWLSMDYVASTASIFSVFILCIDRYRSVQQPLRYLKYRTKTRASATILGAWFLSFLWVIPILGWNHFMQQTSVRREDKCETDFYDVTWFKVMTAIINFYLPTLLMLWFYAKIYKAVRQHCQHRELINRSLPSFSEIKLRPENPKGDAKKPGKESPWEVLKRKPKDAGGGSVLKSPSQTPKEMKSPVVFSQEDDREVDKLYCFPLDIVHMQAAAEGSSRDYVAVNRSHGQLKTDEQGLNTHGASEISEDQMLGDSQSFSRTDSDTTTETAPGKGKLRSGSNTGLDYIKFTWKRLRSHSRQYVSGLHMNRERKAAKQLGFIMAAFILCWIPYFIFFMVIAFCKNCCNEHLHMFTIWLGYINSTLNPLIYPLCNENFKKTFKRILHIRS
Sequence of 5-HT transporter (P31645 whole entry): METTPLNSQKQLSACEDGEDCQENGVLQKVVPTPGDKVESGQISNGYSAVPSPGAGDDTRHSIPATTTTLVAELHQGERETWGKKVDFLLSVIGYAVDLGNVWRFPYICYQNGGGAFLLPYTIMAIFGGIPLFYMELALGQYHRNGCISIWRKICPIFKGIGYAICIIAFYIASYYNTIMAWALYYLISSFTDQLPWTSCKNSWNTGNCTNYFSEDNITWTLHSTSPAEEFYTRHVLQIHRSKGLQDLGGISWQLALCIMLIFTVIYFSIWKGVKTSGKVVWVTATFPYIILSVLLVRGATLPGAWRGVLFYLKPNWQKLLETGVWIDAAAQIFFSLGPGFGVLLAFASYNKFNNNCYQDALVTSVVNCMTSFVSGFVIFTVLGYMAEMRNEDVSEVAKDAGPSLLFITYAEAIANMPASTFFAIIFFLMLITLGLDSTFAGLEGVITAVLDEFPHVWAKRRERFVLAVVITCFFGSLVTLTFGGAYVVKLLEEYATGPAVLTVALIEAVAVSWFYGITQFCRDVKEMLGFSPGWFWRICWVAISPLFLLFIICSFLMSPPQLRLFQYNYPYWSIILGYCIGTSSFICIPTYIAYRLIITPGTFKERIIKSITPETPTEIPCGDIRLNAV
Sequence of 5-HT3 (P46098 24-478): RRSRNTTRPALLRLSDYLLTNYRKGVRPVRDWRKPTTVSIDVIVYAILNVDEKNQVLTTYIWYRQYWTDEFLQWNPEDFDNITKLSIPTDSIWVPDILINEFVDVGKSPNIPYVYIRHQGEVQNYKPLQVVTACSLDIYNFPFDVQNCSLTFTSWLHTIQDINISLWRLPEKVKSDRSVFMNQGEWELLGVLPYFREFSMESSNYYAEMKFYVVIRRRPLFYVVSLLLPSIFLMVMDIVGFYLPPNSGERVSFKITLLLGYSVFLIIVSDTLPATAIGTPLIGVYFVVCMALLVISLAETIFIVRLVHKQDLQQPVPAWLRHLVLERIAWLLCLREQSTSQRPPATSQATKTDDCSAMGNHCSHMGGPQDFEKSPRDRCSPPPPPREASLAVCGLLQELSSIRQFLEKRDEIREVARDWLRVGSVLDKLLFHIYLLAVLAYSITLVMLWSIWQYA
Sequence of GSK3beta (P49841 whole entry): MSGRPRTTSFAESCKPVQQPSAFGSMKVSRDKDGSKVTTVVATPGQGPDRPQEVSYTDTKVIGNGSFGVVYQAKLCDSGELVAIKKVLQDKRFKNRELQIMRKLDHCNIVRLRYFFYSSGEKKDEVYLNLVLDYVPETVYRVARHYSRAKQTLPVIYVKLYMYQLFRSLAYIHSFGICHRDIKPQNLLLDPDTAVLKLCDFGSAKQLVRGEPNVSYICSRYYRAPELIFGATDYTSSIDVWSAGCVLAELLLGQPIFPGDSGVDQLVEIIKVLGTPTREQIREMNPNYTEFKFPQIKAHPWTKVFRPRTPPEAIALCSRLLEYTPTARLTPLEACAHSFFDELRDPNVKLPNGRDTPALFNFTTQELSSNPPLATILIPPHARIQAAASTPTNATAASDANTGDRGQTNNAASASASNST

Q: What does the source list for `CC[C@H](C)[C@@H]1NC(=O)[C@H](Cc2ccc(O)cc2)NC(=O)CNC(=O)CC[C@@H](C(=O)N2CC(F)C[C@H]2C(=O)N[C@@H](CC(C)C)C(=O)NCC(N)=O)NC(=O)[C@H](CC(N)=O)NC(=O)[C@H](CCC(N)=O)NC1=O` (stereo partly shown) [RO6958375] (HELM PEPTIDE1{G.Y.I.Q.N.E.[O=C([C@@H]1CC(F)CN1[*:1])[*:2]].L.G.[am]}$PEPTIDE1,PEPTIDE1,1:R1-6:R3$$$V2.0)?
A: % Inhibition of Control Specific Binding [1]: 17%; Mean / % of Control Specific Binding [1]: 82.8%; % Inhibition of Control Specific Binding [2]: 20%; Mean / % of Control Specific Binding [2]: 80%; % Inhibition of Control Specific Binding [3]: 2%; Mean / % of Control Specific Binding [3]: 98.2%; % Inhibition of Control Specific Binding [4]: 10%; Mean / % of Control Specific Binding [4]: 89.6%; % Inhibition of Control Specific Binding [5]: -5%; Mean / % of Control Specific Binding [5]: 105.2%; % Inhibition of Control Specific Binding [6]: 4%; Mean / % of Control Specific Binding [6]: 96.4%; % Inhibition of Control Specific Binding [7]: -14%; Mean / % of Control Specific Binding [7]: 113.8%; % Inhibition of Control Specific Binding [8]: 18%; Mean / % of Control Specific Binding [8]: 81.9%; time of full activation of rat OXTR post-dose ([9]; sc): 4.3 h; CSF concentration relative to in vitro OXTR EC50 ([9]; rat): more than 10 fold; brain OXTR activation ([9]; rat): 0%; brain OXTR activation ([9]; rat, sc, 0.001 mg/kg): 10%; brain OXTR activation ([9]; rat, sc, 0.07 mg/kg): 72%; % Inhibition of Control Specific Binding [10]: 5%; Mean / % of Control Specific Binding [10]: 94.7%; % Inhibition of Control Specific Binding [11]: -28%; Mean / % of Control Specific Binding [11]: 128.2%; EC50 [12]: > 27000 nM; activity on rat V1aR (inactive up to) [12]: > 1 µM; agonist efficacy and potency relative to oxytocin on rat OXTR [13]: full OXTR agonist and equipotent to oxytocin; % Inhibition of Control Specific Binding [14]: -1%; Mean / % of Control Specific Binding [14]: 101.4%; % Inhibition of Control Specific Binding [15]: 15%; Mean / % of Control Specific Binding [15]: 85.3%; % Inhibition of Control Specific Binding [16]: -5%; Mean / % of Control Specific Binding [16]: 105.2%; % Inhibition of Control Specific Binding [17]: -17%; Mean / % of Control Specific Binding [17]: 116.9%; % Inhibition of Control Specific Binding [18]: -2%; Mean / % of Control Specific Binding [18]: 101.5%; plasma protein binding [19]: negligible; % Inhibition of Control Specific Binding [20]: -2%; Mean / % of Control Specific Binding [20]: 102.2%; % Inhibition of Control Specific Binding [21]: -4%; Mean / % of Control Specific Binding [21]: 103.5%; % Inhibition of Control Specific Binding [22]: -2%; Mean / % of Control Specific Binding [22]: 102.1%; % Inhibition of Control Specific Binding [23]: -3%; Mean / % of Control Specific Binding [23]: 103.1%; % Inhibition of Control Specific Binding [24]: 1%; Mean / % of Control Specific Binding [24]: 98.8%; % Inhibition of Control Specific Binding [25]: -21%; Mean / % of Control Specific Binding [25]: 121.4%; % Inhibition of Control Specific Binding [26]: -6%; Mean / % of Control Specific Binding [26]: 105.5%; % Inhibition of Control Specific Binding [27]: -14%; Mean / % of Control Specific Binding [27]: 113.8%; % Inhibition of Control Specific Binding [28]: 16%; Mean / % of Control Specific Binding [28]: 84.4%; highest concentration detected in rat CSF ([29]; 0.03 mg/kg): 0.24 nM; highest concentration detected in rat CSF ([29]; 0.1 mg/kg): 0.58 nM; CNS uptake from plasma ([29]; rat): ca. 1%; brain half-life (CSF kinetic) ([29]; rat): ca. 70 min; half-life in plasma ([29]; rat): 10 to 15 min; subcutaneous absorption ([29]; rat): rapid; % Inhibition of Control Specific Binding [30]: -2%; Mean / % of Control Specific Binding [30]: 102%; % Inhibition of Control Specific Binding [31]: 3%; Mean / % of Control Specific Binding [31]: 97.2%; % Inhibition of Control Specific Binding [32]: 5%; Mean / % of Control Specific Binding [32]: 95.3%; % Inhibition of Control Specific Binding [33]: -1%; Mean / % of Control Specific Binding [33]: 100.9%; % Inhibition of Control Specific Binding [34]: -2%; Mean / % of Control Specific Binding [34]: 101.7%; EC50 [35]: 0.025 nM; % Inhibition of Control Specific Binding [36]: -15%; Mean / % of Control Specific Binding [36]: 115%
